Results: article PMC8230315, “A Pan-Inhibitor for Protein Arginine Methyltransferase Family Enzymes” (Biomolecules, 2021)
Like-named read-outs stand apart in the source and are kept apart here.

Assays:
PRMT1 [1] = molecular target: T1, PRMT1 (Homo sapiens, UniProt Q99873); assay: SAHH-coupled fluorescence assay, PRMT1 inhibition; type: biochemical; details: for IC50: PRMT1 0.1 µM, n = 2, mean ± SD; for Ki: calculated as Ki, app = IC50/(1 + [S]/Km), read-out: Ki, app
Description: A fluorescence-based SAHH-coupled assay was used to evaluate the IC50 values of inhibitors by monitoring the production of SAH from SAM after methylation. […] The fluorescence signal was monitored on a BMG CLARIOstar microplate reader with excitation at 400 nm and emission at 465 nm for 18 min. Data were processed using GraphPad Prism software 7.0. All experiments were performed in duplicate.
The fluorescence signal was monitored on a BMG CLARIOstar microplate reader with excitation at 400 nm and emission at 465 nm for 18 min. Data were processed using GraphPad Prism software 7.0. All experiments were performed in duplicate. […].

SETD7 = molecular target: T2, SETD7 (Homo sapiens, UniProt Q8WTS6); assay: Selectivity SAHH-coupled fluorescence assay, SETD7; type: biochemical; details: at 100 μM
T2 construct: made in house
T2 sequence (Q8WTS6 1-366): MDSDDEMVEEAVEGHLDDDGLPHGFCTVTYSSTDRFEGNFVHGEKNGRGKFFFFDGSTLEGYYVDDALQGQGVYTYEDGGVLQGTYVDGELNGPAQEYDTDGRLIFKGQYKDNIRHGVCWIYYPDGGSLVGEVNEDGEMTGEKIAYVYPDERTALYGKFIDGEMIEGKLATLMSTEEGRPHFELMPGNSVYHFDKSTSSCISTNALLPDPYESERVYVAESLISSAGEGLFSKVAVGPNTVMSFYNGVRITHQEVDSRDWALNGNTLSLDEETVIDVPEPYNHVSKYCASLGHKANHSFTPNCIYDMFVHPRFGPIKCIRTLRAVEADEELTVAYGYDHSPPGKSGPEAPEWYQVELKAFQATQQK
From the text: (§1) We chose the top four potent compounds (6b and 6l–n) to investigate their selectivities against several in-house methyltransferases including protein arginine methyltransferase TbPRMT7, two members of the protein lysine methyltransferase PKMT (G9a and SETD7), protein N-terminal methyltransferase 1 (NTMT1), and a small molecule methyltransferase nicotinamide N-methyltransferase (NNMT), all of which have a SAM binding site.
A fluorescence-based SAHH-coupled assay was applied to study the effect of the compound on methyltransferase activity of PRMT7, NTMT1, SETD7, G9a, NNMT, and SAHH. For PRMT7, the assay was performed in a final well volume of 100 μL: 25 mM Tris (pH = 7.5), 50 mM KCl, 0.01% Triton X-100, 5 μM SAHH, 0.2 μM PRMT7, 3 μM AdoMet, and 15 μM ThioGlo1. After incubation for 10 min with the inhibitor, reactions were initiated by the addition of 60 μM H4-21 peptide, and the reaction was monitored for 15 min. For NTMT1, the assay was performed in a final well volume of 100 μL: 25 mM Tris (pH = 7.5), 50 mM KCl, 0.01% Triton X-100, 5 μM SAHH, 0.1 μM NTMT1, 3 μM AdoMet, and 10 μM ThioGlo4. After incubation for 10 min with the inhibitor, reactions were initiated by the addition of 0.5 μM GPKRIA peptide, and the reaction was monitored for 15 min. For SETD7, the assay was performed in a final well volume of 100 μL: 25 mM potassium phosphate buffer (pH = 7.6), 0.01% Triton X-100, 5 μM SAHH, 1 μM SETD7, 2 μM AdoMet, and 10 μM ThioGlo1. After incubation for 10 min with the inhibitor, reactions were initiated by the addition of 90 μM H3-21 peptide, and the reaction was monitored for 15 min. For G9a, the assay was performed in a final well volume of 100 μL: 25 mM potassium phosphate buffer (pH = 7.6), 1 mM EDTA, 2 mM MgCl2, 0.01% Triton X-100, 5 μM SAHH, 0.1 μM His-G9a, 10 μM AdoMet, and 10 μM ThioGlo4. For NNMT, the assay was performed in a final well volume of 100 μL: 25 mM Tris (pH = 7.5), 50 mM KCl, 0.01% Triton X- 100, 5 μM SAHH, 0.1 μM NNMT, 10 μM AdoMet, and 10 μM ThioGlo1. After incubation for 10 min with the inhibitor, reactions were initiated by the addition of 10 μM nicotinamide, and the reaction was monitored for 18 min. The inhibitors were added at five concentrations: 100, 33.3, 11.1, 3.7, and 1.2 μM.

PRMT1 [2] = molecular target: T1, PRMT1; details: cited from earlier work
PRMT4 = molecular target: T3, PRMT4 (Homo sapiens, UniProt Q86X55); details: cited from earlier work
T3 construct: purchased Reaction Biology
T3 sequence (Q86X55 1-608): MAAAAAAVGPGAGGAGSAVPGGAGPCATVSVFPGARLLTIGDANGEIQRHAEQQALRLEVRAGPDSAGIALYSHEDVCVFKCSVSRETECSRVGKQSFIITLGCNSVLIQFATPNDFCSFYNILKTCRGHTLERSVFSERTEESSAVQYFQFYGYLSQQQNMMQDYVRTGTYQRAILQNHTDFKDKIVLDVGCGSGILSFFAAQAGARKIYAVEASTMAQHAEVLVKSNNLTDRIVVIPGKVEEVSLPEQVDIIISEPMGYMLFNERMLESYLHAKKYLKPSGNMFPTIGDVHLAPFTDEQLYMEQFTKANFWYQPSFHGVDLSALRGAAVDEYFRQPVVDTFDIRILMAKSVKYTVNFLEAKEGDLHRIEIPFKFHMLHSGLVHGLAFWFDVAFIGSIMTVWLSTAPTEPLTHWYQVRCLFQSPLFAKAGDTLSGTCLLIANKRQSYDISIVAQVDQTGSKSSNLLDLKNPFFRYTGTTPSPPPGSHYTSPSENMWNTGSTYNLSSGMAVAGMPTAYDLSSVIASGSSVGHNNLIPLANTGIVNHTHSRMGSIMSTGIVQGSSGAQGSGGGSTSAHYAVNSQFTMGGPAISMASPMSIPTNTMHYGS

TbPRMT7 = molecular target: T4, TbPRMT7 (Trypanosoma brucei brucei, UniProt Q582G4); assay: Selectivity SAHH-coupled fluorescence assay, TbPRMT7; type: biochemical; details: at 11.1 μM
T4 construct: made in house
From the text: as §1
A fluorescence-based SAHH-coupled assay was applied to study the effect of the compound on methyltransferase activity of PRMT7, NTMT1, SETD7, G9a, NNMT, and SAHH. For PRMT7, the assay was performed in a final well volume of 100 μL: 25 mM Tris (pH = 7.5), 50 mM KCl, 0.01% Triton X-100, 5 μM SAHH, 0.2 μM PRMT7, 3 μM AdoMet, and 15 μM ThioGlo1. After incubation for 10 min with the inhibitor, reactions were initiated by the addition of 60 μM H4-21 peptide, and the reaction was monitored for 15 min. […] After incubation for 10 min with the inhibitor, reactions were initiated by the addition of 0.5 μM GPKRIA peptide, and the reaction was monitored for 15 min. […] After incubation for 10 min with the inhibitor, reactions were initiated by the addition of 90 μM H3-21 peptide, and the reaction was monitored for 15 min. […] After incubation for 10 min with the inhibitor, reactions were initiated by the addition of 10 μM nicotinamide, and the reaction was monitored for 18 min. […]

PRMT5/MEP50 = tested on: PRMT5/MEP50; set-up: method as in doi:10.1158/1538-7445.AM2018-4859; details: cited from earlier work
[3] = substrate concentration at 4 Km (footnote a)
[4] = at Km of SAM (10 µM) and H4-21 peptide (5 µM)

T1 sequence (Q99873 whole entry, species assumed): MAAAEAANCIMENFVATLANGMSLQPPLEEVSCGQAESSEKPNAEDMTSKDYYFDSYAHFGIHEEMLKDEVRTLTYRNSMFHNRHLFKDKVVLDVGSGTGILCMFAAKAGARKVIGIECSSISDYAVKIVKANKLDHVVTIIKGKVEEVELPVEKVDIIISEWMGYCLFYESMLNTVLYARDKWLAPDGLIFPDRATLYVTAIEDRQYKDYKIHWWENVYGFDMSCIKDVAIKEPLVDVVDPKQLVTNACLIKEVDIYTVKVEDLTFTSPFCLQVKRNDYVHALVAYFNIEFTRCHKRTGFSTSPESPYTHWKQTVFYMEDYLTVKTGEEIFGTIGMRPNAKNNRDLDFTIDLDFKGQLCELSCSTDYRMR
T4 sequence (Q582G4 whole entry): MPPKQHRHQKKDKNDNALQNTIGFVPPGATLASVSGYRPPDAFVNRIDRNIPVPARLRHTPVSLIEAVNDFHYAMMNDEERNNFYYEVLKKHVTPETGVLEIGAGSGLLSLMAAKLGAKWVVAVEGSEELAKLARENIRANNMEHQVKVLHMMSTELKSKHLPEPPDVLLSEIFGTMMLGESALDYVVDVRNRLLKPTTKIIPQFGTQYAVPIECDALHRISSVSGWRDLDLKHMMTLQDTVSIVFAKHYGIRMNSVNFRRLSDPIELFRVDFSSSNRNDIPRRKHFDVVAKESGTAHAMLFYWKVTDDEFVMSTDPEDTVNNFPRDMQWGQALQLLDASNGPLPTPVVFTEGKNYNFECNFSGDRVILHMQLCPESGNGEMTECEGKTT

Row | Structure (SMILES) | Ki (PRMT1 [1]) | IC50 (PRMT1 [1]; [4]) | further results
1 | N=C(N)NCCCCN(CCC(N)C(=O)O)C[C@H]1O[C@@H](n2cnc3c(N)ncnc32)[C@H](O)[C@@H]1O (some centres unmarked) [JD-16] |  |  | IC50 (PRMT1 [2]): 3000 nM
2 | N=C(NCCCSC[C@H]1O[C@@H](n2cnc3c(N)ncnc32)[C@H](O)[C@@H]1O)NCc1ccccc1 [Compound 6g, 1-(3-((((2S,3S,4R,5R)-5-(6-amino-9H-purin-9-yl)-3,4-dihydroxytetrahydrofuran-2-yl)methyl)thio)propyl)-3-benzylguanidine] | 360 ± 75 nM | 720 ± 150 nM | 
3 | CCCNC(CCC(N)C(=O)O)C[C@H]1O[C@@H](n2cnc3c(N)ncnc32)[C@H](O)[C@@H]1O (some centres unmarked) [Pr-SNF] |  |  | IC50 (PRMT4): 9500 nM
4 | N=C(NCCCSC[C@H]1O[C@@H](n2cnc3c(N)ncnc32)[C@H](O)[C@@H]1O)Nc1ccccc1 [Compound 6f, 1-(3-((((2S,3S,4R,5R)-5-(6-amino-9H-purin-9-yl)-3,4-dihydroxytetrahydrofuran-2-yl)methyl)thio)propyl)-3-phenylguanidine] | 150 ± 5 nM | 290 ± 10 nM | fold reduction of PRMT1 inhibition compared to 6d (PRMT1 [1]; ratio of IC50 values): about 2.5 fold
6 | N=C(NCCCSC[C@H]1O[C@@H](n2cnc3c(N)ncnc32)[C@H](O)[C@@H]1O)NCCCc1ccccc1 [Compound 6i, 1-(3-((((2S,3S,4R,5R)-5-(6-amino-9H-purin-9-yl)-3,4-dihydroxytetrahydrofuran-2-yl)methyl)thio)propyl)-3-(3-phenylpropyl)guanidine] | 170 ± 55 nM | 330 ± 110 nM | 
7 | N=C(NCCCSC[C@H]1O[C@@H](n2cnc3c(N)ncnc32)[C@H](O)[C@@H]1O)NC1CCCC1 [Compound 6c, 1-(3-((((2S,3S,4R,5R)-5-(6-amino-9H-purin-9-yl)-3,4-dihydroxytetrahydrofuran-2-yl)methyl)thio)propyl)-3-cyclopentylguanidine] | 110 ± 8 nM | 220 ± 16 nM | 
8 | CCNC(=N)NCCCSC[C@H]1O[C@@H](n2cnc3c(N)ncnc32)[C@H](O)[C@@H]1O [Compound 6a, 1-(3-((((2S,3S,4R,5R)-5-(6-amino-9H-purin-9-yl)-3,4-dihydroxytetrahydrofuran-2-yl)methyl)thio)propyl)-3-ethylguanidine] | 310 ± 40 nM | 620 ± 80 nM | 

The next lines start with results.

Row | Ki (PRMT1 [1]) | IC50 (PRMT1 [1]; [4]) | Structure (SMILES) | further results
9 | 52 ± 14 nM |  | N=C(NCCCSC[C@H]1O[C@@H](n2cnc3c(N)ncnc32)[C@H](O)[C@@H]1O)NCc1ccc(Br)cc1 [Compound 6n, 1-(3-((((2S,3S,4R,5R)-5-(6-amino-9H-purin-9-yl)-3,4-dihydroxytetrahydrofuran-2-yl)methyl)thio)propyl)-3-(4-bromobenzyl)guanidine] | IC50 (PRMT1 [1]; [3]): 260 ± 70 nM; inhibition at 100 µM (SETD7): > 50%
10 | 110 ± 30 nM | 210 ± 60 nM | N=C(NCCCSC[C@H]1O[C@@H](n2cnc3c(N)ncnc32)[C@H](O)[C@@H]1O)NCCc1ccccc1 [Compound 6h, 1-(3-((((2S,3S,4R,5R)-5-(6-amino-9H-purin-9-yl)-3,4-dihydroxytetrahydrofuran-2-yl)methyl)thio)propyl)-3-phenethylguanidine] | 
11 | 110 ± 5 nM | 210 ± 10 nM | N=C(NCCCSC[C@H]1O[C@@H](n2cnc3c(N)ncnc32)[C@H](O)[C@@H]1O)Nc1ccccc1[N+](=O)[O-] [Compound 6j, 1-(3-((((2S,3S,4R,5R)-5-(6-amino-9H-purin-9-yl)-3,4-dihydroxytetrahydrofuran-2-yl)methyl)thio)propyl)-3-(2-nitrophenyl)guanidine] | 
12 | 45 ± 5 nM |  | N=C(NCCCSC[C@H]1O[C@@H](n2cnc3c(N)ncnc32)[C@H](O)[C@@H]1O)NC1CCC1 [Compound 6b, 1-(3-((((2S,3S,4R,5R)-5-(6-amino-9H-purin-9-yl)-3,4-dihydroxytetrahydrofuran-2-yl)methyl)thio)propyl)-3-cyclobutylguanidine] | IC50 (PRMT1 [1]; [3]): 230 ± 20 nM; inhibitory activity against PRMT7 (TbPRMT7): no inhibitory activity; inhibition at 100 µM (SETD7): > 50%
13 | 58 ± 7 nM |  | N=C(NCCCSC[C@H]1O[C@@H](n2cnc3c(N)ncnc32)[C@H](O)[C@@H]1O)Nc1ccc(Br)cc1 [Compound 6m, 1-(3-((((2S,3S,4R,5R)-5-(6-amino-9H-purin-9-yl)-3,4-dihydroxytetrahydrofuran-2-yl)methyl)thio)propyl)-3-(4-bromophenyl)guanidine] | IC50 (PRMT1 [1]; [3]): 290 ± 40 nM; inhibition at 100 µM (SETD7): > 50%
14 | 55 ± 24 nM | 110 ± 48 nM | N=C(NCCCSC[C@H]1O[C@@H](n2cnc3c(N)ncnc32)[C@H](O)[C@@H]1O)NC1CCCCC1 [Compound 6d, 1-(3-((((2S,3S,4R,5R)-5-(6-amino-9H-purin-9-yl)-3,4-dihydroxytetrahydrofuran-2-yl)methyl)thio)propyl)-3-cyclohexylguanidine] | 
15 | 60 ± 13 nM | 120 ± 26 nM | N=C(NCCCSC[C@H]1O[C@@H](n2cnc3c(N)ncnc32)[C@H](O)[C@@H]1O)NCC1CCCCC1 [Compound 6e, 1-(3-((((2S,3S,4R,5R)-5-(6-amino-9H-purin-9-yl)-3,4-dihydroxytetrahydrofuran-2-yl)methyl)thio)propyl)-3-(cyclohexylmethyl)guanidine] | 
